For 57 molecules, melting point results are on record in patent US7772271B2 (priority 2004, dated 2010).

The melting point is the temperature of the solid-liquid transition. On to `CCn1c(-c2ccc(NC(=O)C3CC3)cc2)c(C#N)c2ccc(OCCNCCN3CCOCC3)cc21` [Compound 1394], for which the melting point fell in the range of 96.5 to 100.6 °C.

`C[C@@H](OC(=O)Nc1ccc(-c2c(C#N)c3ccc(OC(=O)NCCc4ccccc4)cc3n2C2CCC2)cc1)C1CC1` [Compound 3173] had a melting point of 203 to 206 °C.

For `COCCOc1ccc2c(C#N)c(-c3ccc(NC(=O)OC(C)C4CC4)cc3)n(C3CCC3)c2c1` (stereo not drawn) [compound 1423, [4-(3-cyano-1-cyclobutyl-6-(2-methoxyethoxy)-1H-indol-2-yl)-phenyl]-carbamic acid 1-cyclopropyl-ethyl ester], the melting point fell in the range of 192 to 193 °C.

The molecule `CC(C)OC(=O)Nc1ccc(-c2c(C#N)c3ccc(N4CCOCC4)cc3n2C(C)C)cc1` [Compound 2934] had a melting point of 192 to 195 °C.

As to `CCOCCOc1ccc2c(C#N)c(-c3ccc(NC(=O)OC(C)C4CC4)cc3)n(C3CCC3)c2c1` (stereo not drawn) [Compound 2613], the melting point fell in the range of 141 to 142 °C.

`CC(C)CS(=O)(=O)Nc1ccc(-c2c(C#N)c3ccc(OCS(C)(=O)=O)cc3n2C2CCC2)cc1` [Compound 2991] displayed a melting point of 221 to 225 °C.

Consider `CS(=O)(=O)Nc1ccc(-c2c(C#N)c3ccc(N4CCCCC4)cc3n2C2CCC2)cc1` [Compound 2984], for which the melting point is 229 to 233 °C.

`N#Cc1c(-c2ccc(NS(=O)(=O)C3CC3)cc2)n(C2CCC2)c2cc(OC3CCOCC3)ccc12` [Compound 2747] registered a melting point of 202 to 204 °C.

`CN(C)C(=O)c1ccc2c(C#N)c(-c3ccc(NS(=O)(=O)C4CC4)cc3)n(C3CCC3)c2c1` [Compound 2297] gave a melting point of 235 to 237 °C.

The molecule `CC(C)n1c(-c2ccc(NC(=O)O[C@H](C)C(F)(F)F)cc2)c(C#N)c2ccc(N3CCOCC3)cc21` [Compound 2952] yielded a melting point of 148 to 150 °C.

The molecule `CC(C)c1ccc(CNc2ccc(-c3c(C#N)c4ccc(OC5CCOCC5)cc4n3C3CCC3)cc2)cc1` [Compound 3119] gave a melting point of 157 to 159 °C.

Turning to `CC(OC(=O)Nc1ccc(-c2c(C#N)c3ccc(OC4CCOCC4)cc3n2C2CC2)cc1)C1CC1` (stereo not drawn) [Compound 2647], the melting point is 130 to 133 °C.

With `CCCS(=O)(=O)Nc1ccc(-c2c(C#N)c3ccc(Oc4nccnc4C#N)cc3n2C2CCC2)cc1` [Compound 3181], the melting point fell in the range of 218 to 220 °C.

Turning to `CC(C)OC(=O)Nc1ccc(-c2c(C#N)c3ccc(OCCN4CCC(O)C4)cc3n2C2CCC2)cc1` (stereo not drawn) [Compound 1435], the melting point lay in the range of 161 to 165 °C.

`CCCCNC(=O)Oc1ccc(-c2c(C#N)c3ccc(OC4CCOCC4)cc3n2C2CCC2)cc1` [Compound 2810] returned a melting point of 137 to 138 °C.

On to `CCOc1ccc2c(C#N)c(-c3ccc(NC(=O)NCC(C)O)cc3)n(C3CCC3)c2c1` (stereo not drawn) [Compound 1391], for which the melting point lay within 195 to 200 °C.

In turn, `CCn1c(-c2ccc(NS(=O)(=O)CC)cc2)c(C#N)c2ccc(C(=O)N3CCOCC3)cc21` [Compound 1361] displayed a melting point of 238 to 241 °C.

In the case of `C[C@@H](OC(=O)Nc1ccc(-c2c(C#N)c3ccc(-c4ccccn4)cc3n2C2CCC2)cc1)C(F)(F)F` [Compound 2959], the melting point fell in the range of 220 to 222 °C.

With `CCOc1ccc2c(C#N)c(-c3ccc(NC(=O)OCc4cccnc4)cc3)n(C3CCC3)c2c1` [Compound 1432], the melting point is 187 to 194 °C.

Molecule `CCOc1ccc2c(C#N)c(-c3ccc(N(CC)C(=O)NC4CCCC4)cc3)n(C3CCC3)c2c1` [compound 1425, 1-[4-(3-cyano-1-cyclobutyl-6-ethoxy-1H-indol-2-yl)-phenyl]-3-cyclopenyl-1-ethyl-urea] displayed a melting point of 153 to 160 °C.

Molecule `C[C@@H](OC(=O)Nc1ccc(-c2c(C#N)c3ccc(C(=O)N4CCCCC4)cc3n2C2CCC2)cc1)C1CC1` [Compound 2787] yielded a melting point of 148 to 150 °C.

Take `N#Cc1c(-c2ccc(NS(=O)(=O)c3ccccc3)cc2)n(C2CCC2)c2cc(OC3CCOCC3)ccc12` [Compound 3091]: the melting point lay in the range of 231 to 233 °C.

For the molecule `N#Cc1c(-c2ccc(NC(N)=S)cc2)n(C2CCC2)c2cc(OC3COCOC3)ccc12` [Compound 2846], the melting point is 202 to 204 °C.

Take `CC(OC(=O)Nc1ccc(-c2c(C#N)c3ccc(OC4CCOCC4)cc3n2C2CC2)cc1)C(F)(F)F` (stereo not drawn) [Compound 2649]: the melting point lay in the range of 207 to 209 °C.

As for `C[C@@H](OC(=O)Nc1ccc(-c2c(C#N)c3ccc(-c4ccccn4)cc3n2C2CCC2)cc1Cl)C(F)(F)F` [Compound 2994], the melting point fell in the range of 84 to 94 °C.

As for `C[C@@H](OC(=O)Nc1ccc(-c2c(C#N)c3ccc(N4CCOCC4)cc3n2C2CCC2)cc1)c1ccc(F)cc1` [Compound 2865], the melting point lay within 163 to 165 °C.

For the molecule `CCOc1ccc2c(C#N)c(-c3ccc(NC(=O)NC(C)COC)cc3)n(C3CCC3)c2c1` (stereo not drawn) [Compound 1441], the melting point lay within 192 to 196 °C.

As to `C[C@@H](OC(=O)Nc1ccc(-c2c(C#N)c3ccc(OC4CCS(=O)(=O)CC4)cc3n2C2CCCC2)cc1)C1CC1` [Compound 3245], the melting point fell in the range of 243 to 250 °C.

For `CC(OC(=O)Nc1ccc(-c2cc3ccc(Oc4ncccn4)cc3n2C2CCC2)cc1)C(F)(F)F` (stereo not drawn) [compound 2888, {4-[1-cyclobutyl-6-(pyrimidin-2-yloxy)-1H-indole-2-yl]-phenyl}-carbamic acid 2,2,2-trifluoro-1-methyl-ethyl ester], the melting point fell in the range of 99 to 101 °C.

With `COc1ccnc(Oc2ccc3c(C#N)c(-c4ccc(NC(=O)NC(C)C)cc4)n(C4CCC4)c3c2)n1` [Compound 2750], the melting point lay within 221 to 225 °C.

Consider `Cc1ccnc(Oc2ccc3c(C#N)c(-c4ccc(NC(=O)O[C@H](C)C5CC5)cc4)n(C4CCC4)c3c2)n1` [Compound 2913], for which the melting point is 172 to 174 °C.

For `N#Cc1c(-c2ccc(NC3CC3)nc2)n(C2CCC2)c2cc(Oc3ncccn3)ccc12` [Compound 3313], the melting point lay within 244 to 246 °C.

The molecule `C[C@@H](OC(=O)Nc1ccc(-c2c(C#N)c3ccc(N4CCOCC4)cc3n2CC2CC2)cc1)C1CC1` [Compound 2933] displayed a melting point of 167 to 173 °C.

Consider `CCn1c(-c2ccc3c(ccn3S(=O)(=O)CC)c2)c(C#N)c2ccc(OC)cc21` [compound 1331], for which the melting point was 157 to 160 °C.

Consider `Cc1ccc(-c2ccc3c(C#N)c(-c4ccc(NC(=O)O[C@H](C)C5CC5)cc4)n(C4CCC4)c3c2)nc1` [Compound 3002], for which the melting point is 88 to 102 °C.

In turn, `C[C@@H](OC(=O)Nc1ccc(-c2c(C#N)c3ccc(Oc4ncccn4)cc3n2C2CCC2)cc1)c1ccc(F)cc1` [Compound 2716] returned a melting point of 173 to 175 °C.

As to `C[C@@H](OC(=O)Nc1ccc(-c2c(C#N)c3ccc(C(=O)N4CCCC4)cc3n2C2CCC2)cc1)C1CC1` [Compound 2788], the melting point lay in the range of 124 to 127 °C.

Consider `CN(C)c1ccc(NC(=O)Oc2ccc(-c3c(C#N)c4ccc(OC5CCOCC5)cc4n3C3CCC3)cc2)cc1` [Compound 3111], for which the melting point lay within 165 to 166 °C.

In turn, `CC(C)n1c(-c2ccc(NC(=O)O[C@H](C)C3CC3)cc2)c(C#N)c2ccc(OC3CCS(=O)(=O)CC3)cc21` [Compound 3235] returned a melting point of 249 to 256 °C.

Consider `CS(=O)(=O)COc1ccc2c(C#N)c(-c3ccc(NS(=O)(=O)C4CCC4)cc3)n(C3CCC3)c2c1` [Compound 2993], for which the melting point was in the range of 231 to 237 °C.

`CC(C)n1c(-c2ccc(N3CCCCS3(=O)=O)cc2)c(C#N)c2ccc(N3CCOCC3)cc21` [Compound 3215] displayed a melting point of 260 to 271 °C.

For the molecule `CC(C)(C)OC(=O)Nc1ccc(-c2c(C#N)c3ccc(N4CCSCC4)cc3n2C2CCC2)cc1` [Compound 2777], the melting point is 191 °C (dec.).

As to `CCn1c(-c2ccc(N)cc2)c(C#N)c2ccc(OCCOC)cc21` [Compound 1366], the melting point was 168 to 169 °C.

`CCN(CC)C(=O)Nc1ccc(-c2c(C#N)c3ccc(OCCOC)cc3n2CC)cc1` [Compound 1378] displayed a melting point of 147 to 150 °C.

`CCCS(=O)(=O)Nc1ccc(-c2c(C#N)c3ccc(Oc4nccnc4C#N)cc3n2CC2CC2)cc1` [Compound 3224]: the melting point fell in the range of 178 to 180 °C.

For the molecule `N#Cc1c(-c2ccc(N)cc2)n(C2CCC2)c2cc(Oc3nccc(N4CCOCC4)n3)ccc12` [Compound 3099], the melting point lay in the range of 149 to 152 °C.

For `CCCS(=O)(=O)Nc1ccc(-c2c(C#N)c3ccc(Oc4ncccc4F)cc3n2C2CC2)cc1` [Compound 2956], the melting point fell in the range of 198 to 200 °C.

As to `CCCS(=O)(=O)Nc1ccc(-c2c(C#N)c3cc(C(=O)N(CC)CC)ccc3n2C2CCC2)cc1` [Compound 3095], the melting point lay within 133 to 134 °C.

Molecule `N#Cc1c(-c2ccc(NS(=O)(=O)C3CCCC3)cc2)n(C2CCC2)c2cc(OC3COCOC3)ccc12` [Compound 2918] showed a melting point of 195 to 196 °C.

`N#Cc1c(-c2ccc(NCCCc3ccccc3)cc2)n(C2CCC2)c2cc(OC3CCOCC3)ccc12` [Compound 3118] returned a melting point of 105 to 108 °C.

As for `C[C@@H](NC(=O)Nc1ccc(-c2c(C#N)c3ccc(Oc4ncccn4)cc3n2C2CCC2)cc1)c1ccc(F)cc1` [Compound 2819], the melting point was 150 °C (dec.).

`CCS(=O)(=O)NCCOc1ccc2c(C#N)c(-c3ccc(NC(=O)OC(C)C4CC4)cc3)n(C3CCC3)c2c1` (stereo not drawn) [Compound 3229]: the melting point was 88 to 91 °C.

Turning to `CC(C)OC(=O)Nc1ccc(-c2cc3ccc(Oc4nccnc4C#N)cc3n2CC2CC2)cc1` [Compound 3282], the melting point is 181 to 182 °C.

In turn, `N#Cc1c(-c2ccc(NS(=O)(=O)C3CC3)cc2)n(CC2CC2)c2cc(OC3CCOCC3)ccc12` [Compound 2768] came in with a melting point of 99 to 102 °C.

For `CCOc1ccc2c(C#CC3CC3)c(-c3ccc(NC(=O)OC(C)C)cc3)n(CC3CC3)c2c1` [compound 2635, [4-(3-cyclopropylethynyl-1-cyclopropylmethyl-6-ethoxy-1H-indol-2-yl)-phenyl]-carbamic acid isopropyl ester], the melting point is 175 to 180 °C.

In turn, `CCn1c(-c2ccc(NC(=O)OC3CCCC3)cc2)c(C#N)c2ccc(OCCOC)cc21` [Compound 1407] yielded a melting point of 137 to 140 °C.

In turn, `CC(C)c1ccc(Nc2ccc(-c3c(C#N)c4ccc(OC5CCOCC5)cc4n3C3CCC3)cc2)cc1` [Compound 3127] showed a melting point of 185 to 188 °C.
